This is an account of results in PubChem BioAssay (NCI).

Among the test systems are A549 NSCLC; NCI-H460 lung; MOLT-4 leukemia; HT29 colon; NCI/ADR-RES ovarian; NCI-H23 lung; T-47D breast; SNB-75 CNS; HL-60(TB) leukemia; NCI-H226 lung.
Test in all cases: growth of human tumour cells (NCI), 48 h

Each structure is given as a SMILES string. “And” between values parts separate entries of the source, which are not always exact repeats. Identical values can stand only once.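 Results reflect a 48-hour exposure of cells in 96-well plates to compound at five concentrations. GI50 marks 50% less growth. The concentration for full growth arrest is given as TGI.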

Turning to `OC(c1ccc(-c2ccccc2)cc1)(c1ccc(-c2ccccc2)cc1)c1ccc(-c2ccccc2)cc1`, the TGI with A549 NSCLC, with NCI-H460 lung, in the assay with MOLT-4 leukemia, with HT29 colon, with NCI/ADR-RES ovarian and in the assay with NCI-H23 lung was greater than 100 µM throughout. This compound also yielded a TGI in the assay on T-47D breast greater than 100 µM.

As for `O=C1CS(=O)(=O)C(c2cccc(Oc3ccccc3)c2)N1c1cccc(Cl)c1Cl` (stereo not given), the TGI in the assay on A549 NSCLC is greater than 100 µM; in the assay on SNB-75 CNS it was 92.3 µM; with NCI-H460 lung it was greater than 100 µM; in the assay on HL-60(TB) leukemia, 82.9 µM; with MOLT-4 leukemia, 58.9 µM; with HT29 colon, 71.2 µM. Besides, the TGI with NCI-H226 lung and with T-47D breast was greater than 100 µM throughout.

With `CCN(CC)/C(=C\Cl)Nc1ccccn1`, the TGI with A549 NSCLC, with SNB-75 CNS, in the assay on NCI-H460 lung, in the assay on HL-60(TB) leukemia, with MOLT-4 leukemia and in the assay on HT29 colon was greater than 100 µM throughout. Also, the TGI in the assay with NCI-H226 lung and with NCI-H23 lung was greater than 100 µM each time.

With `C=CCOCCCC(=O)C(=[N+]=[N-])C(=O)OC`, the TGI with A549 NSCLC, with SNB-75 CNS, in the assay with NCI-H460 lung, in the assay with HL-60(TB) leukemia, in the assay on MOLT-4 leukemia and in the assay with HT29 colon was greater than 100 µM in each case. Further, the TGI with NCI-H226 lung and in the assay with NCI-H23 lung was greater than 100 µM each time.

As for `Cc1c(Cl)c(=O)oc2cc(OCC(=O)c3ccccc3)ccc12`, the TGI with A549 NSCLC, in the assay on NCI-H460 lung, with HL-60(TB) leukemia, in the assay on MOLT-4 leukemia, in the assay with HT29 colon and in the assay with NCI/ADR-RES ovarian was greater than 100 µM each time. In addition, the TGI in the assay with NCI-H226 lung, with NCI-H23 lung and in the assay with T-47D breast was greater than 100 µM throughout.

As for `CC(=O)C1(c2ccccc2)CCCN(C)CC1` (stereo not given), the TGI in the assay on SNB-75 CNS, with NCI-H460 lung, in the assay with MOLT-4 leukemia, in the assay on HT29 colon, in the assay on NCI/ADR-RES ovarian and in the assay with NCI-H226 lung was greater than 100 µM throughout. The TGI with NCI-H23 lung and in the assay on T-47D breast was greater than 100 µM in each case.

On to `CN(C)CCNc1c([N+](=O)[O-])cc2c3c(cccc13)C(=O)N(CCN(C)C)C2=O`, for which the TGI with SNB-75 CNS came out at 4.18 µM; in the assay with NCI-H460 lung, 2.26 µM; in the assay with HL-60(TB) leukemia it was 5.53 µM; in the assay on MOLT-4 leukemia, 3.09 µM; in the assay with HT29 colon, 5.03 µM; with NCI/ADR-RES ovarian, 9.32 µM. Further, the TGI in the assay with NCI-H226 lung is greater than 100 µM; in the assay with NCI-H23 lung, 3.89 µM.

For `COc1nc(C#CCCCC#N)nc(OC)n1`, the TGI in the assay with A549 NSCLC was 31.9 µM; in the assay on SNB-75 CNS, 75.7 µM; with NCI-H460 lung, 89.1 µM; with HL-60(TB) leukemia it was 71.6 µM; in the assay on MOLT-4 leukemia it was greater than 100 µM; in the assay with HT29 colon, greater than 100 µM. The figures for the TGI in the assay on NCI/ADR-RES ovarian, with NCI-H23 lung and in the assay with T-47D breast were greater than 100 µM, 31.4 µM and greater than 100 µM, respectively.

Consider `CN1CCN(CCCOc2ccc3ncnc(Nc4ccc(Oc5cccc(C(F)(F)F)c5)c(Cl)c4)c3c2)CC1`, for which the GI50 in the assay with A549 NSCLC is 1.27 µM; in the assay on SNB-75 CNS, 1.15 µM; with NCI-H460 lung it was 1.73 µM; in the assay on HL-60(TB) leukemia, 1.89 µM; in the assay with MOLT-4 leukemia it was 1.83 µM; in the assay with HT29 colon, 1.13 µM. Moreover, the GI50 was 2.4 µM in the assay with NCI/ADR-RES ovarian, 21 µM in the assay on NCI-H226 lung, 1.81 µM in the assay on NCI-H23 lung and 1.39 µM in the assay with T-47D breast. Moreover, the TGI turned out to be 2.74 µM in the assay with A549 NSCLC; 3.13 µM in the assay with SNB-75 CNS; 3.37 µM with NCI-H460 lung; 4.52 µM with HL-60(TB) leukemia; 4.8 µM with MOLT-4 leukemia; 3.63 µM in the assay on HT29 colon. Further, the TGI is 8.62 µM with NCI/ADR-RES ovarian, 52 µM in the assay with NCI-H226 lung, 4.04 µM in the assay with NCI-H23 lung and 4.02 µM with T-47D breast.

With `O=C1CC(N2C(=O)/C(=C/C(Cl)=C\c3ccc([N+](=O)[O-])cc3)SC2=S)C(=O)N1c1ccc(Cl)cc1` (stereo not given), the GI50 was 3.3 µM in the assay with NCI-H460 lung; 1.45 µM in the assay with HL-60(TB) leukemia; 0.596 µM in the assay with MOLT-4 leukemia; 0.632 µM with HT29 colon; 1.01 µM in the assay with NCI/ADR-RES ovarian; 1.92 µM with NCI-H226 lung. Besides, the GI50 in the assay on NCI-H23 lung was 1.64 µM; in the assay with T-47D breast it was 2.03 µM. The TGI with NCI-H460 lung was greater than 100 µM; in the assay with HL-60(TB) leukemia, 8.86 µM; in the assay on MOLT-4 leukemia, 13.4 µM; in the assay with HT29 colon, 4.6 µM; in the assay with NCI/ADR-RES ovarian it was 6.19 µM; with NCI-H226 lung, 4.65 µM. Further, the TGI stood at 4.31 µM in the assay on NCI-H23 lung and 6.34 µM in the assay with T-47D breast.

As for `CCCCC1Cc2cc(OC)ccc2-c2nc3cc(OC)ccc3n21` (stereo not given) (tested in a mixture with another compound), the TGI amounted to 27.9 µM with A549 NSCLC; 28.7 µM with NCI-H460 lung; 34.9 µM with HL-60(TB) leukemia; 37 µM in the assay with MOLT-4 leukemia; 22.5 µM with HT29 colon; 26.4 µM in the assay on NCI/ADR-RES ovarian. The TGI in the assay on NCI-H226 lung stood at 28.1 µM; in the assay on NCI-H23 lung, 27.8 µM; in the assay with T-47D breast it was 53.8 µM.

As to `Cc1c(N)nc([C@H](CC(N)=O)NC[C@H](N)C(N)=O)nc1C(=O)N[C@H](C(=O)N[C@H](C)[C@@H](O)[C@H](C)C(=O)N[C@H](C(=O)NCCc1nc(-c2nc(C(=O)NCCC[S+](C)C)cs2)cs1)[C@@H](C)O)C(OC1OC(CO)C(O)C(O)C1OC1OC(CO)C(O)C(OC(N)=O)C1O)c1cnc[nH]1` (stereo not given in full), the GI50 in the assay with SNB-75 CNS is 5.98 µM and 1.06 µM; in the assay on MOLT-4 leukemia it was 0.204 µM and 0.613 µM; in the assay on NCI/ADR-RES ovarian it was 1.21 µM and 1.09 µM; in the assay with T-47D breast it was 5.28 µM and 1.03 µM and 5.77 µM. In addition, the TGI in the assay with SNB-75 CNS was 6.42 µM and 13.4 µM and 18.8 µM; in the assay with NCI-H460 lung it was 13.1 µM and 7.63 µM and 31.6 µM; with MOLT-4 leukemia it was 13.1 µM and 2.22 µM and 4.41 µM; with HT29 colon, 25 µM and 29 µM and > 100 µM; in the assay with NCI/ADR-RES ovarian it was 12.8 µM and 4.87 µM and 5.61 µM; in the assay on T-47D breast, 24.8 µM and 14.8 µM and 45.9 µM.
